target: T1, EHMT2 (Homo sapiens, UniProt Q96KQ7); assay: MDA-MB-231 H3K9me2 in-cell Western assay (EHMT2 ICW); type: cell-based; conditions: Table III; MDA-MB-231 H3K9me2 in-cell Western; read-out: EHMT2 ICW (IC50 μM)
T1 construct: host or cells: MDA-MB-231
T1 sequence (Q96KQ7 1-1210): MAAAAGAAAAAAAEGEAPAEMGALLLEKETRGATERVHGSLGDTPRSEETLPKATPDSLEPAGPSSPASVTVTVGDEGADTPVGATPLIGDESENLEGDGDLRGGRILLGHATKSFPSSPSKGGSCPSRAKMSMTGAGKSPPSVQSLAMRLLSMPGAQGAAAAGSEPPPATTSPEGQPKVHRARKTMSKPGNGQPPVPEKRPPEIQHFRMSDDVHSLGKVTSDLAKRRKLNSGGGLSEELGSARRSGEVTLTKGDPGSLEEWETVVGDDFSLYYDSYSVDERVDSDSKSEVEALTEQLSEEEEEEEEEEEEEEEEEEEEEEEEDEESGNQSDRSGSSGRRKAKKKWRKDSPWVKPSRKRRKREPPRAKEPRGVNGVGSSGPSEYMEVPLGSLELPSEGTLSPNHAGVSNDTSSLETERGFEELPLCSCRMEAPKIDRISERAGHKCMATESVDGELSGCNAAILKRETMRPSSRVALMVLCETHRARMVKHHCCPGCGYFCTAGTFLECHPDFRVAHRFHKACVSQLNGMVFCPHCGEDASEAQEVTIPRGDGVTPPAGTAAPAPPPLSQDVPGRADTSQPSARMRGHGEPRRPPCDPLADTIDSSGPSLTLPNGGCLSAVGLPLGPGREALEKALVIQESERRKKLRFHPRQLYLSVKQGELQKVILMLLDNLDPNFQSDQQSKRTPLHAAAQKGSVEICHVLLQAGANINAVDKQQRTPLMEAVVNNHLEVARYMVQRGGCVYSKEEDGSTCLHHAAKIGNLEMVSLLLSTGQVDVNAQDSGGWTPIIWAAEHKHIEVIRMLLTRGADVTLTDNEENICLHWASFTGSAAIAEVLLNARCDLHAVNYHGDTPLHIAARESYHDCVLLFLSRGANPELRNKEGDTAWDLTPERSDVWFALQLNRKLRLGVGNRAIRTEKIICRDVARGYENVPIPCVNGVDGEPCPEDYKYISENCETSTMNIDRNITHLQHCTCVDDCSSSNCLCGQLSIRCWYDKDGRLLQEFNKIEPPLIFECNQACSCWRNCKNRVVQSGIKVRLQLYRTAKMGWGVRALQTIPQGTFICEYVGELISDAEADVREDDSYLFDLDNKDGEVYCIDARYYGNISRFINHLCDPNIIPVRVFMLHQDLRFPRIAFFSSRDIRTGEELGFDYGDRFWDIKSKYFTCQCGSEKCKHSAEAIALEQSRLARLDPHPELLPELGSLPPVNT
Procedure, shortened: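 Steps: compound added to plate, MDA-MB-231 cells plated in RPMI with 10% FBS, incubation for 48 h at 37 °C, fixation, overnight anti-H3K9me2 staining at 4 °C, and donkey anti-mouse 800CW with DRAQ5 counterstain. IC50 values come from percent inhibition fitted with a four-parameter model.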

Row | IC50 [µM] | Structure (SMILES)
1 | > 10 | COc1ccc(Nc2cccc3[nH]ccc23)cc1OCCCN1CCCC1 [Compound 265, N-(4-methoxy-3-(3-(pyrrolidin-1-yl)propoxy)phenyl)-1H-indol-4-amine]
2 | 1 to 10 | COc1ccc(Nc2nccc3[nH]ccc23)cc1OCCCN1CCCC1 [Compound 266, N-(4-methoxy-3-(3-(pyrrolidin-1-yl)propoxy)phenyl)-1H-pyrrolo[3,2-c]pyridin-4-amine]
3 | 0.1 to 1 | CNc1nccc(Nc2ccc(OC)c(OCCCN3CCCC3)c2)n1 [Compound 355]
4 | > 10 | CNc1cc(C)nc(Nc2ccc(F)c(OCCCN3CCCC3)c2)n1 [Compound 356]
5 | > 10 | CNc1nc(Nc2ccc(OC)c(OCCCN3CCCC3)c2)ncc1C#N [Compound 357]
6 | > 10 | CNc1nc(Nc2ccc(OC)c(OCCCN3CCCC3)c2)ncc1C(F)(F)F [Compound 358]
7 | > 10 | CNc1ncc(C(F)(F)F)c(Nc2ccc(OC)c(OCCCN3CCCC3)c2)n1 [Compound 359]
8 | 0.1 to 1 | CNc1nc(Nc2ccc(OC)c(OCCCN3CCCC3)c2)nc(C)c1F [Compound 360]
9 | > 10 | CNc1ccnc(Nc2ccc(OC)c(OCCN3CCOCC3)c2)n1 [Compound 361]
10 | > 10 | CNc1cc(C(F)(F)F)nc(Nc2ccc(OC)c(OCCCN3CCCC3)c2)n1 [Compound 362]
11 | > 10 | CNc1ccnc(Nc2ccc3c(c2)N(C(=O)CCN(C)C)CC3)n1 [Compound 363]
12 | 0.1 to 1 | CCc1cc(NC)nc(Nc2ccc(OC)c(OCCCN3CCCC3)c2)n1 [Compound 364]
13 | > 10 | COc1ccc(Nc2nccc(CNC3CCOCC3)n2)cc1OCCCNc1ccccc1 [Compound 365]
14 | > 10 | COc1ccc(Nc2cnnc(NCC3CCN(C(C)=O)CC3)c2)cc1OCCCN1CCCC1 [Compound 366]
15 | > 10 | COc1ccc(Nc2nccc(NCC3CCOCC3)n2)cc1OC1CC2(C1)CN(C)C2 [Compound 367]
16 | > 10 | CNc1ccnc(Nc2ccc(F)c(OCCCN3CCCC3)c2)n1 [Compound 368]
17 | 1 to 10 | COc1ccc(Nc2nccc(N)n2)cc1OCCCN1CCCC1 [Compound 369]
18 | > 10 | CNc1cnnc(Nc2ccc(OC)c(OCCCN3CCCC3)c2)c1 [Compound 370]
19 | > 10 | CNc1cncc(Nc2ccc(OC)c(OCCCN3CCCC3)c2)n1 [Compound 371]

Row | IC50 [µM] | Structure (SMILES)
20 | 0.1 to 1 | CNc1cc(Nc2cc(OCCCN3CCCC3)c(OC)cn2)ccn1 [Compound 372]
21 | > 10 | COc1ccc(Nc2nccc3[nH]ncc23)cc1OCCCN1CCCC1 [Compound 373]
22 | > 10 | COc1ccc(Nc2ccnc3[nH]ccc23)cc1OCCCN1CCCC1 [Compound 374]
23 | > 10 | CC(C)Nc1ccnc(Nc2cccc(OCCCN3CC[C@@H](F)C3)c2)n1 [Compound 375]
24 | 0.1 to 1 | COc1ccc(Nc2nccc(NC(C)C3CCOCC3)n2)cc1OCCCN1CCCC1 (stereo not drawn) [Compound 378]
25 | 1 to 10 | CNc1ccnc(Nc2ccc(OC)c(OCCCN3CCCC3)c2)c1 [Compound 379]
26 | > 10 | CNc1ccnc(Nc2ccc3ccn(CCN4CCCC4)c(=O)c3c2)n1 [Compound 381]
27 | 0.1 to 1 | CNc1ccnc(Nc2ccc(OC)c(COCCN3CCCC3)c2)n1 [Compound 382]
28 | > 10 | CNc1ccnc(Nc2cccc(COCCN3CCCC3)c2)n1 [Compound 383]
29 | > 10 | CNc1cc(C#N)nc(Nc2ccc(OC)c(OCCCN3CCCC3)c2)n1 [Compound 384]
30 | 1 to 10 | CCc1cc(NC)nc(Nc2ccc(OC)c(OCCCN3CC[C@@H](F)C3)c2)n1 [Compound 385]
31 | > 10 | CNc1ccnc(Nc2ccc3cnn(CCN(C)C)c3c2)n1 [Compound 386]
32 | 0.1 to 1 | CNc1ccnc(Nc2ccc(OC)c(OCCCN(C)C)c2)n1 [Compound 387]
33 | > 10 | CNc1ccnc(Nc2ccc3cnn(CCCN(C)C)c3c2)n1 [Compound 388, N^2-(1-(3-(dimethylamino)propyl)-1H-indazol-6-yl)-N^4-methylpyrimidine-2,4-diamine]
34 | > 10 | CNc1ccnc(Nc2ccc3c(C)nn(CCCN(C)C)c3c2)n1 [Compound 389]
35 | 0.1 to 1 | CNc1ccnc(Nc2ccc(OC)c(OCCCN3CCCCC3)c2)n1 [Compound 390]
36 | 1 to 10 | CNc1cc(C)nc(Nc2cccc(OCCCN3CCCC3)c2)n1 [Compound 391]
37 | 1 to 10 | COc1ccc(Nc2nccc(NCC(F)(F)F)n2)cc1OCCCN1CCCC1 [Compound 392]
38 | 0.1 to 1 | CNc1ccnc(Nc2ccc(OC)c(OCC3CCN(C)C3)c2)n1 (stereo not drawn) [Compound 393]

Row | IC50 [µM] | Structure (SMILES)
39 | > 10 | CCNC(=O)c1cccc(Nc2nccc(NC)n2)c1 [Compound 394]
40 | > 10 | CCNC(=O)c1cc(Nc2nccc(NC)n2)ccc1OC [Compound 395]
41 | > 10 | CCNC(=O)c1cc(Nc2nccc(NC)n2)ccc1Cl [Compound 396]
42 | > 10 | CNc1ccnc(Nc2cccc(N3CCC(N(C)C)C3)c2)n1 (stereo not drawn) [Compound 397]
43 | 1 to 10 | CNc1ccnc(Nc2ccc(Cl)c(OCCCN3CCCC3)c2)n1 [Compound 398]
44 | > 10 | CNc1ccnc(Nc2cccc(N3CCC(N)C3)c2)n1 (stereo not drawn) [Compound 400]
45 | > 10 | COc1ccc(Nc2ccc3cn(C)nc3n2)cc1OCCCN1CCCC1 [Compound 402]
46 | > 10 | CNc1ccnc(Nc2ccc3cn(CCN(C)C)nc3c2)n1 [Compound 404, N^2-(2-(2-(dimethylamino)ethyl)-2H-indazol-6-yl)-N^4-methylpyrimidine-2,4-diamine]
47 | > 10 | CNc1ccnc(Nc2ccc3cn(CCCN(C)C)nc3c2)n1 [Compound 405]
48 | 0.1 to 1 | CNc1ccnc(Nc2ccc(OC)c(COC3CCN(C)C3)c2)n1 (stereo not drawn) [Compound 407, N^2-(4-methoxy-3-(((1-methylpyrrolidin-3-yl)oxy)methyl)phenyl)-N^4-methylpyrimidine-2,4-diamine]
49 | 0.1 to 1 | CCN1CCC(COc2cc(Nc3nccc(NC)n3)ccc2OC)C1 (stereo not drawn) [Compound 408, N^2-(3-((1-ethylpyrrolidin-3-yl)methoxy)-4-methoxyphenyl)-N^4-methylpyrimidine-2,4-diamine]
50 | 0.1 to 1 | CNc1ccnc(Nc2ccc(OC)c(OCC3CCN(C(C)C)C3)c2)n1 (stereo not drawn) [Compound 409, N^2-(3-((1-isopropylpyrrolidin-3-yl)methoxy)-4-methoxyphenyl)-N^4-methylpyrimidine-2,4-diamine]
51 | > 10 | CNc1ccnc(Nc2ccc(OC)c(OCC3CCN(CCOC)C3)c2)n1 (stereo not drawn) [Compound 410, N^2-(4-methoxy-3-((1-(2-methoxyethyl)pyrrolidin-3-yl)methoxy)phenyl)-N^4-methylpyrimidine-2,4-diamine]
52 | 0.1 to 1 | CNc1ccnc(Nc2ccc(OC)c(OCC3CCN(C4CC4)C3)c2)n1 (stereo not drawn) [Compound 411, N^2-(3-((1-cyclopropylpyrrolidin-3-yl)methoxy)-4-methoxyphenyl)-N^4-methylpyrimidine-2,4-diamine]
53 | 1 to 10 | CNc1ccnc(Nc2ccc(OC)c(OCC3CCCN(C)C3)c2)n1 (stereo not drawn) [Compound 412, N^2-(4-methoxy-3-((1-methylpiperidin-3-yl)methoxy)phenyl)-N^4-methylpyrimidine-2,4-diamine]
54 | 0.1 to 1 | CNc1cc(C)nc(Nc2ccc(OC)c(OCC3CCCN(C)C3)c2)n1 (stereo not drawn) [Compound 413, N^2-(4-methoxy-3-((1-methylpiperidin-3-yl)methoxy)phenyl)-N^4,6-dimethylpyrimidine-2,4-diamine]
55 | 0.1 to 1 | CNc1ccnc(Nc2ccc(OC)c(OCCCN3CC(O)C3)c2)n1 [Compound 414, 1-(3-(2-methoxy-5-((4-(methylamino)pyrimidin-2-yl)amino)phenoxy)propyl)azetidin-3-ol]
56 | 1 to 10 | CCCN1CCC(COc2cc(Nc3nccc(NC)n3)ccc2OC)C1 (stereo not drawn) [Compound 420, N^2-(4-methoxy-3-((1-propylpyrrolidin-3-yl)methoxy)phenyl)-N^4-methylpyrimidine-2,4-diamine]
57 | 1 to 10 | CNc1cc(C)nc(Nc2ccc(OC)c(COC3CCN(C)C3)c2)n1 (stereo not drawn) [Compound 421, N^2-(4-methoxy-3-(((1-methylpyrrolidin-3-yl)oxy)methyl)phenyl)-N^4,6-dimethylpyrimidine-2,4-diamine]

— patent US20210198277A1, “AMINE-SUBSTITUTED ARYL OR HETEROARYL COMPOUNDS” (Epizyme, Inc., priority 2016, published 2021)
